This is an account of results in patent publication US20050090498A1, “3-Quinolin-2(1h)-ylideneindolin-2-one derivative” (priority 2001, published 2005).

Experiment [1] deals with Human umbilical vein endothelial cells (HUVEC), VEGF-stimulated. Put plainly: Test on the inhibition of VEGF-stimulated HUVEC growth ([3H]thymidine incorporation). The format is cell-based. The note with it: human recombinant VEGF 10 ng/ml. Background: Dividing cells build labelled thymidine or BrdU into new DNA.
Experiment [2] relates to VEGF-dependent in vitro angiogenesis (endotherial vessel forming amount). Put plainly: In vitro angiogenesis inhibition test (KURABO angiogenesis kit, CD31 staining). The format is cell-based. The conditions noted are these: Homo sapiens, 312 h; 10 ng/ml VEGF, 13 days culture, anti-VEGF antibody as 0% control. As for the experimental part: Test method: An angiogenesis assay kit (mfd. by KURABO was used. A medium prepared by adding 10 ng/ml of VGEF (R & D Systems) to the special medium attached to the kit used as the culture medium. Each test drug was prepared as a 10 mM DMSO solution and added to a final concentration of from 0.003 to 1 μM by diluting with the special medium. Amount of angiogenesis under a condition of not adding the test drug was used as the positive control, and a condition under which 25 μg/ml of an anti-VEGF antibody (Sigma) was added was used as the negative control. On the 4th, 7th and 10th days after commencement of the culturing, the test drug was prepared as described in the above and exchanged with the medium of each well. On the 13th day, fixation of the cell layer was carried out in accordance with the method attached to the kit. That is, fixation of cell layer was carried out by adding ice-cooled 70% ethanol after washing with a physiological phosphate buffer and then allowing to stand at room temperature for 30 minutes. […]
A endotherial vessel staining kit CD31 for staining (mfd. by KURABO) was used for the staining of the thus formed hollow organ. […] By importing the file preserved in the imaging software, the number of pixel obtained by threshold and measure commands was recorded. […]

The test system of experiment [3] is human colon tumor COLO 205. Put plainly: In vivo anti-tumor test using human colon tumor bearing nude mice. Also on record: species or system female Balb/c nude mouse. The note with it: COLO 205 bearing nude mice, oral once a day for 14 days, 10 or 30 mg/kg/day. Here is the method: Test method: A total of 4×10^6 cells of a human colon tumor COLO 205 were administered under the dorsal side skin of each female Balb/c nude mouse. When the tumor volume reached 50 to 100 mm^3, each of the test compounds was orally administered once a day for 14 days. In addition, 0.5% methyl cellulose aqueous solution was orally administered to the control group. Calipers were used for the measurement of tumor diameter, and it was measured on the next day of the final administration. In this case, the tumor volume was calculated using the following calculation formula. Tumor volume=(width^2×length)/2

What is called IC50 is the concentration needed to halve the response being measured. Take `O=C1Nc2ccccc2C1=C1C=Cc2ccccc2N1` [Compound A, 3-quinolin-2(1H)-ylideneindolin-2-one]: the figures for the IC50 in experiment [1] and in experiment [2] were 140 nM and 69 nM, respectively.
On to `O=C1Nc2ccccc2C1=C1C=Cc2cc(OCCN3CCOCC3)ccc2N1` [Example 4, 3-[6-(2-morpholin-4-ylethoxy)quinolin-2(1H)-ylidene]indolin-2-one], for which the “tumor growth inhibition (tumor volume) versus control” value in experiment [3] is recorded as “inhibit the tumor growth with a significance for the control”. The IC50 in experiment [1] worked out at 190 nM.
For `CN1CCN(C(=O)c2ccc3c(c2)C=CC(=C2C(=O)Nc4ccccc42)N3)CC1` [Example 148, 3-[6-(4-methylpiperazine-1-carbonyl)quinolin-2(1H)-ylidene]indolin-2-one] the same measures were “inhibit the tumor growth with a significance for the control” and 74 nM.
